Test results from doi:10.1101/2020.08.16.252940v1 (biorxiv, 2020).

Legend:
VDR = VDR (Homo sapiens, UniProt P11473); details: antagonist mode; agonist and cell line not told
VDR-LBD = VDR-LBD (Homo sapiens, UniProt P11473); assay: biochemical
VDR-LBD, sequence (P11473 118-427 limits assumed): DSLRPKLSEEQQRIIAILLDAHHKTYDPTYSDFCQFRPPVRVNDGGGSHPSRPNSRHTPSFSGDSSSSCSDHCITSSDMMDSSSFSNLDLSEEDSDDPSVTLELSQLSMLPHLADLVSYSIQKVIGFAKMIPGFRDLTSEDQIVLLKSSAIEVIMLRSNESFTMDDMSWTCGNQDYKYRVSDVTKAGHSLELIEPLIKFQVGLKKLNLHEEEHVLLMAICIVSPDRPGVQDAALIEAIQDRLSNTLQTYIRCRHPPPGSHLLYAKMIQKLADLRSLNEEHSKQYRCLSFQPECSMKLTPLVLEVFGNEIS

VDR, sequence (P11473 whole entry, the tested form may be a part): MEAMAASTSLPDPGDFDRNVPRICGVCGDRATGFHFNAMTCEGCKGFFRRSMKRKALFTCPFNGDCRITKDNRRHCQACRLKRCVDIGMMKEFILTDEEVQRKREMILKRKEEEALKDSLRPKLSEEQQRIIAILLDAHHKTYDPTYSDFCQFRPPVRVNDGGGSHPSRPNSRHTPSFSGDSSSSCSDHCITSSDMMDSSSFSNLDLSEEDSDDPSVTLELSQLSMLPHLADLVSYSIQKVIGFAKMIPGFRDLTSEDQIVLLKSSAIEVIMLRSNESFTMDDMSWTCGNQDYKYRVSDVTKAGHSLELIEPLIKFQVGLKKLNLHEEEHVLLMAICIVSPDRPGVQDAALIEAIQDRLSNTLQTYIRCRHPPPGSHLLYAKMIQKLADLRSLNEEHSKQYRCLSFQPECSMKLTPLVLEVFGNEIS

| inhibition only at concentrations above (VDR) | IC50 (VDR-LBD) | SMILES |
| --- | --- | --- |
| > 100 µM | – | CC(C)CCC[C@@H](C)[C@H]1CC[C@H]2C3=CC=C4C[C@@H](O)CC[C@]4(C)[C@H]3CC[C@]12C [7-dehydrocholesterol] |
| – | 1.86 µM | CC(C)CCC[C@@H](C)[C@H]1CC[C@@H]2[C@]1(C)CC[C@H]1[C@]23C=C[C@]2(C[C@@H](OC(=O)CBr)CC[C@]12C)n1c(=O)n(C)c(=O)n13 [MeTC7] |
